According to patent publication US20230113037A1 (Bayer Aktiengesellschaft, priority 2019, published 2023):
Where two headings read alike, the source gives them in different places.

Experiments:
AHR [1] = molecular target: T1, AHR (Homo sapiens, UniProt P35869); experiment: In vitro assay 1: antagonism in human cell line (AHR transactivation, firefly luciferase reporter, kynurenic acid prestimulated); assay type: cell-based; details: AHR Antagonism Human IC50 [M]
T1 construct: U87 MG glioblastoma cells (ATCC #HTB-14) endogenously expressing AHR; endogenous in cells; host or cells: U87 MG glioblastoma cells (ATCC #HTB-14)
T1 sequence (P35869 11-848): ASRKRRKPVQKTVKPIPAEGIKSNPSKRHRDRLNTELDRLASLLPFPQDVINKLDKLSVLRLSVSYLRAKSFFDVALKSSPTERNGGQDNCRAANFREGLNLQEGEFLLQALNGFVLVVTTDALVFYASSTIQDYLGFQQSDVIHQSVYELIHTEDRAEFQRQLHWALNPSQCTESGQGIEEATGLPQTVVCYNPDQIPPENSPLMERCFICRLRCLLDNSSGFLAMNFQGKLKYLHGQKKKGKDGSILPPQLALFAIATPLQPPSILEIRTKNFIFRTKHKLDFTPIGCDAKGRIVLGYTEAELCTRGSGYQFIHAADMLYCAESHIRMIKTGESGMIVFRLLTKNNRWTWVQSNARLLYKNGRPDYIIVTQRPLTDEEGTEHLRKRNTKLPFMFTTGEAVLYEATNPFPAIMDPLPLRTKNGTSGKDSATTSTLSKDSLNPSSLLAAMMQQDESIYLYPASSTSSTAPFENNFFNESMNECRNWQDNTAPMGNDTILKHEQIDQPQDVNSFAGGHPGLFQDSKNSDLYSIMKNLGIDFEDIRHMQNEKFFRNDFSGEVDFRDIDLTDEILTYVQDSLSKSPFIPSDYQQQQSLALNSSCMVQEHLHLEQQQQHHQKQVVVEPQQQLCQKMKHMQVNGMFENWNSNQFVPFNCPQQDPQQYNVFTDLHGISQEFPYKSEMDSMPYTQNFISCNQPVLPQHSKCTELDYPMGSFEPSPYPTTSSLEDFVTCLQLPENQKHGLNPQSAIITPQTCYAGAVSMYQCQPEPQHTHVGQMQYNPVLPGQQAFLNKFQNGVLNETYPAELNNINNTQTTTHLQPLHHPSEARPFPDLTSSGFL
Outline: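 Antagonism measured as loss of kynurenic acid-driven firefly luciferase from DRE reporter in stably transfected U87 MG cells; constitutive Renilla signal monitors cytotoxicity. Positive/negative control normalization, staurosporine 5 μM with 150 μM kynurenic acid as inhibition control; replicates given as mean or median.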

AHR [2] = molecular target: T2, AHR (Mus musculus, UniProt P30561); experiment: In vitro assay 3: antagonism in mouse cell line (AHR transactivation, firefly luciferase reporter, kynurenic acid prestimulated); assay type: cell-based
T2 sequence (P30561 1-848 P471L/N533S/M589L): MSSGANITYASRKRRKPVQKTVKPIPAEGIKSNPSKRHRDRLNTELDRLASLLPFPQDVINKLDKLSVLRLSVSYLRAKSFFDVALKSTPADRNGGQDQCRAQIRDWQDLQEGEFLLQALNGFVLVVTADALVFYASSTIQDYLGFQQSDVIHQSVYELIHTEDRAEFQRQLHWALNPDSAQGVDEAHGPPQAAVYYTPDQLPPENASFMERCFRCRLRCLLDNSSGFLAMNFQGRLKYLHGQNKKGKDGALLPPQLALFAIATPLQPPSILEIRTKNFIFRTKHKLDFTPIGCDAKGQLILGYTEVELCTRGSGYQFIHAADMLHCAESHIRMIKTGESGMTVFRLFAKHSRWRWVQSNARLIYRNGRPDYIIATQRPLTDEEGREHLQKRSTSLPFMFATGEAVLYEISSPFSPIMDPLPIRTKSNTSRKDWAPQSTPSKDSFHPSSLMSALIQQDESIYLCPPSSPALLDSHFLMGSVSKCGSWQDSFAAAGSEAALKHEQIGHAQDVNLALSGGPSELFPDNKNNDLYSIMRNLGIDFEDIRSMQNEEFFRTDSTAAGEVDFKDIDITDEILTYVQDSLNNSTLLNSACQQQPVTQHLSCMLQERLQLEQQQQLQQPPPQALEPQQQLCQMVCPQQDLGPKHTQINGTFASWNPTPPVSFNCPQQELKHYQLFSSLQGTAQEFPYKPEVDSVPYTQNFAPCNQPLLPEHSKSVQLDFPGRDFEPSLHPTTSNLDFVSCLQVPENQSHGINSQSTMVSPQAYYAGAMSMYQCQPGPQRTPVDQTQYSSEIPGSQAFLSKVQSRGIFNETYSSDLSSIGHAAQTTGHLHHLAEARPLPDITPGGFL
Outline: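 Antagonism read as reduced firefly luciferase signal (SteadyGlo) from a stably transfected AHR/DRE reporter in a mouse line prestimulated with kynurenic acid. Data normalized to controls, the full-inhibition control being cells without kynurenic acid; multiple determinations given as average or median values.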

[3] = Hepa 1c1c7 cells, 200 μM kynurenic acid, 20 hours, firefly luciferase reporter, read-out: AHR Antagonism Mouse IC50
[4] = mouse Hepa 1c1c7 cells, 200 μM kynurenic acid, 20 hours, read-out: AHR Antagonism Mouse IC50

Row | Compound | IC50 (AHR [1]; firefly luciferase reporter) [M] | IC50 (AHR [2]; [3]) [µM] | IC50 (AHR [1]) [M] | IC50 (AHR [2]; [4]) [µM] | IC50 (AHR [2]; read-out: AHR Antagonism Mouse IC50, Hepa 1c1c7 cells, 200 μM kynurenic acid, 20 hours, firefly luciferase reporter) [µM]
1 | COCCN(C)C(=O)[C@@H](C)Nc1nc2c(C(F)(F)F)cccc2c2nc(-c3cnn(C)c3)nn12 [Example 878, N-(2-methoxyethyl)-N-methyl-N^2-[2-(1-methyl-1H-pyrazol-4-yl)-7-(trifluoromethyl)[1,2,4]triazolo[1,5-c]quinazolin-5-yl]-D-alaninamide] | 2.78e-08 | 0.0433 |  |  | 
2 | COc1ccc(-c2nc3c4ccccc4nc(N[C@H](C)C(=O)NCCN4CCN(C)CC4)n3n2)cc1 [Example 881, N^2-[2-(4-methoxyphenyl)[1,2,4]triazolo[1,5-c]quinazolin-5-yl]-N-[2-(4-methylpiperazin-1-yl)ethyl]-D-alaninamide] | 6.04e-09 | 0.0122 |  |  | 
3 | CC[C@@H](Nc1nc2ccccc2c2nc(-c3cccc(C#N)c3)nn12)C(N)=O [Example 382, (2R)-2-{[2-(3-cyanophenyl)[1,2,4]triazolo[1,5-c]quinazolin-5-yl]amino}butanamide] |  |  | 7.64e-09 | 0.00125 | 
4 | COc1ccc(-c2nc3c4ccc(C(F)(F)F)cc4nc(N[C@@H]4CNCCNC4=O)n3n2)cc1 [Example 273, (6R)-6-{[2-(4-methoxyphenyl)-8-(trifluoromethyl)[1,2,4]triazolo[1,5-c]quinazolin-5-yl]amino}-1,4-diazepan-5-one] |  |  | > 2e-05 | 4.59 | 
5 | COc1ccc(-c2nc3c4ccc(F)cc4nc(N[C@@H]4CCCCNC4=O)n3n2)cc1 [Example 153, (3R)-3-{[8-fluoro-2-(4-methoxyphenyl)[1,2,4]triazolo[1,5-c]quinazolin-5-yl]amino}azepan-2-one] |  |  | 4.35e-10 | 0.00118 | 
6 | COC(=O)c1cccc2nc(N[C@@H]3CCCCNC3=O)n3nc(-c4ccc(OC)cc4)nc3c12 [Example 252, methyl 2-(4-methoxyphenyl)-5-{[(3R)-2-oxoazepan-3-yl]amino}[1,2,4]triazolo[1,5-c]quinazoline-10-carboxylate] |  |  | 6.55e-08 | 0.0498 | 
7 | CC(C)n1cc(-c2nc3c4cccc(Br)c4nc(N[C@H]4CNCCNC4=O)n3n2)cn1 [Example 984, (6S)-6-({7-bromo-2-[1-(propan-2-yl)-1H-pyrazol-4-yl][1,2,4]triazolo[1,5-c]quinazolin-5-yl}amino)-1,4-diazepan-5-one] | 3.84e-08 | 0.0412 |  |  | 
8 | CC[C@H](Nc1nc2c(Br)cccc2c2nc(-c3ccnn3C)nn12)C(N)=O [Example 801, (2S)-2-{[7-bromo-2-(1-methyl-1H-pyrazol-5-yl)[1,2,4]triazolo[1,5-c]quinazolin-5-yl]amino}butanamide] | 1.04e-07 |  |  |  | 0.0405
9 | Cn1cc(-c2nc3c4c(Cl)cccc4nc(N[C@@H]4CNCCNC4=O)n3n2)cn1 [Example 417] |  |  | 1.11e-06 | 7.3 | 
10 | COc1ccc(-c2nc3c4cccc(Br)c4nc(N[C@H](C)C(=O)NCCN4CCNCC4)n3n2)cc1 [Example 992, N^2-[7-bromo-2-(4-methoxyphenyl)[1,2,4]triazolo[1,5-c]quinazolin-5-yl]-N-[2-(piperazin-1-yl)ethyl]-D-alaninamide-hydrogen chloride (1/2)] | 3.94e-09 | 0.00774 |  |  | 
11 | O=C1NCCCC[C@H]1Nc1nc2c(F)cccc2c2nc(-c3ccncc3)nn12 [Example 552, (3R)-3-{[7-fluoro-2-(pyridin-4-yl)[1,2,4]triazolo[1,5-c]quinazolin-5-yl]amino}azepan-2-one] |  |  | 1.28e-07 | 0.23 | 
12 | COc1ccc(-c2nc3c4cccc(Br)c4nc(N[C@H](C)C(=O)NCCCN(C)C)n3n2)cc1 [Example 809, N^2-[7-bromo-2-(4-methoxyphenyl)[1,2,4]triazolo[1,5-c]quinazolin-5-yl]-N-[3-(dimethylamino)propyl]-D-alaninamide] | 1.82e-08 | 0.00905 |  |  | 
